According to patent US11510931B2, “Compositions and methods for treating ophthalmic conditions” (MEDICON PHARMACEUTICALS, INC., priority 2016, dated 2022):

How the values were obtained:
eyes of rabbits = test: Safety of topically applied PS in rabbits (toxicity, intraocular pressure, corneal melt, slit lamp); assay type: in vivo, rabbit
Source text: The Safety of Topically Applied PS.

MMP-9 = MMP-9 levels in lacrimal gland and aqueous humor of rabbits with DED (ELISA); assay type: in vivo, rabbit
Method: In an in vitro assay with purified MMP-1 (collagenase I) as […] it was shown that PS inhibited collagenase activity with an IC50 of <100 nM. In cultured human conjunctiva cells, PS suppressed MMP-1 by 75%-86%. In the lacrimal glands of rabbits with DED treated with PS eye drops, PS suppressed MMP-9 levels by 27% compared to vehicle treated rabbits (2.20±0.24 vs. 1.66±0.20 ng/mg protein; p<0.05; mean±SEM).

[1] = tested on: chorioallantoic membrane (CAM); test: Chorioallantoic membrane (CAM) neovascularization assay; assay type: in vivo, chicken; details: day 4; for # of new vessels: Mean ± SEM
Method: Second, the effect of PS on new vessel formation (neovascularization) was evaluated using the chorioallantoic membrane (CAM) assay. In this assay, fertilized white chicken eggs (SPF Premium, Charles River Laboratory, North Franklin, Conn.) were incubated at 37° C. in 70% humidity for 3 days. The embryos were then incubated ex vivo in a sterile Petri dish for 7 days. Gelatin sponges adsorbed with or without VEGF plus PS or water (vehicle control) were implanted on the CAM surface and the neovasculature was counted on day 4 post implantation under a dissecting microscope.

[2] = Biodistribution of PS in human eyes (ex vivo); assay type: in vitro ADME; details: human eye ex vivo, 10 min contact, 60 min incubation
Method: Biodistribution of PS in human eyes (ex vivo): Human cadaveric eyes were obtained through the Lions Eye Bank for Long Island, Valley Stream, NY. They were preserved on ice and used within 2 h from removal from the donors.
The anterior surface of the human eye (corresponding to an area slightly larger than the palpebral fissure) was brought into direct contact with a PS HP-β-CD solution (PS concentration at 0.5%, 2.0% and 3.3%) and incubated for 10 min at 37° C. The eye was then rinsed with 10% dimethylsulfoxide (DMSO) to remove residual PS from the surface of the eye and incubated in PBS for 60 min. […] At the specified times, ocular tissues were dissected and PS levels determined by HPLC. The Table below summarizes the findings.

[3] = tested on: cataract surgery plus LPS-induced ocular inflammation in rabbits; test: Ocular inflammation after cataract surgery plus intravitreal LPS in rabbits; assay type: in vivo, rabbit; details: PS 3.5% in nanoparticles
Method: The anti-inflammatory effect of PS in New Zealand white rabbits was evaluated following cataract surgery and administration of the proinflammatory bacterial lipopolysaccharide (LPS). Briefly, the lens was removed by phacoemulsification and aspiration and replaced with the hydrophobic acrylic intraocular lens (AR40e, AMO). Upon completion of the operation, 1 μg of LPS dissolved in 10 μl PBS was injected into the vitreous to induce uveitis.
Rabbits were treated with PS 3.5% formulated in nanoparticles or vehicle (nanoparticles without PS) applied topically as eye drops three times per day. The first application was made within 1 h after completion of surgery. The rabbits were examined daily and the aqueous humor (AH) was sampled by needle aspiration on days 1, 3, and 5 following the injection of LPS. The number of infiltrating cells in the AH was determined following standard methods. On day 5, the rabbits were euthanized and the implanted lens was removed and fixed in 2.5% glutaraldehyde and the number of inflammatory cells attached to the lens was examined under a dissecting microscope.

[4] = rabbits, 2 weeks of daily PS 3.6% eye drops
[5] = weekly during a 1-month application of PS

## CCOP(=O)(OCC)OCCCCOC(=O)CC1=C(C)/C(=C/c2ccc([S+](C)[O-])cc2)c2ccc(F)cc21 (centres unmarked) [PS, phosphosulindac]
Eyes of rabbits; 1-month application of PS
  Intraocular pressure (Tonopen): remained normal
  signs of uveitis: No animal developed signs of uveitis
Eyes of rabbits; rabbits
  tolerability of ocular application: very well tolerated
Eyes of rabbits; rabbits treated for up to 3 weeks
  keratitis or corneal melting (ophthalmological examination): no evidence of keratitis or corneal melting
Eyes of rabbits; [4]
  intraocular pressure: no changes in intraocular pressure
  topical or systemic toxicity: no evidence of topical or systemic toxicity
Eyes of rabbits; [5]
  slit lamp examination: conjunctiva: no evidence of follicular/papillary response or injection of the conjunctiva
  slit lamp examination: corneal abnormalities (staining defects, vascularization, opacification, epithelial defects, stromal thinning, melts): nor were there signs of corneal abnormalities
MMP-9; lacrimal glands of rabbits with DED, PS eye drops
  MMP-9 levels suppression compared to vehicle: 27%
MMP-9; lacrimal glands of rabbits with DED, PS eye drops, mean±SEM
  MMP-9 levels: 1.66±0.20 ng/mg protein
MMP-9; rabbits with DED treated with PS for 1 week
  MMP-9 levels in the ILG and the aqueous humor: back to normal
[1]; Gallus gallus, 96 h, VEGF + PS 16 μM
  inhibition at 16 µM: 26%
[1]; Gallus gallus, 96 h, VEGF + PS 50 μM
  inhibition at 50 µM: 34%
[1]; PS 50 μM without VEGF
  neovascularization % inhibition: 29 (P < 0.016) %
  # of new vessels: 41 ± 3.2
[1]; VEGF + PS 16 μM
  # of new vessels: 46.4 ± 1.5
[1]; VEGF + PS 50 μM
  # of new vessels: 41.4 ± 1.0
[2]; 0.5% PS HP-β-CD solution
  PS in Aqueous: 2.4 µM
  PS in Choroid: 28.5 µM
  PS in Cornea: 187.2 µM
  PS in Iris: 25.6 µM
  PS in Lens: 0.6 µM
  PS in Retina: 2.9 µM
  PS in Sclera: 381.3 µM
  PS in Vitreous: 0.3 µM
[2]; 2.0% PS HP-β-CD solution
  PS in Cornea: 397.7 µM
  PS in Iris: 34.2 µM
  PS in Lens: 1.4 µM
  PS in Retina: 38.7 µM
  PS in Sclera: 870.9 µM
[2]; 3.3% PS HP-β-CD solution
  PS in Aqueous: 19.5 µM
  PS in Choroid: 261.4 µM
  PS in Cornea: 266.4 µM
  PS in Iris: 169.3 µM
  PS in Lens: 1.9 µM
  PS in Retina: 48.5 µM
  PS in Sclera: 2,596.6 μM
  PS in Vitreous: 4.3 µM
[3]; eye drops three times per day, first 24 h of treatment, FIG. 13
  ocular inflammation (clinical appearance): essentially eliminated
[3]; day 3, eye drops three times per day, FIG. 14
  number of inflammatory cells in aqueous humor (AH): < 70000 mL⁻¹
[3]; day 5
  inflammatory cells attached to the implanted lens: very few or no cells
